Assay results from PMC10933344, “A lncRNA Dleu2-encoded peptide relieves autoimmunity by facilitating Smad3-mediated Treg induction” (EMBO Reports, 2024).

Assays:
[1] = test system: Foxp3 CNS1-luciferase reporter / Smad3; test: Foxp3 CNS1-luciferase reporter assay in NIH/3T3 cells; type: cell-based, mouse; conditions: 20 μM
Experimental: Figure 4 Dleu2-17aa modulates TGF-β/Smad signaling to promote Foxp3 transcription. (A) qPCR analysis of TGF-β/Smad signaling downstream genes in CD4^+ T cells treated with Dleu2-17aa or scrPEP for 24 h and challenged with TGF-β to activate the signaling pathway (n = 3). (B) NIH/3T3 cells were transfected with a Foxp3 CNS1-luciferase reporter plasmid and a Smad3 expression vector. Subsequently, the cells were treated with either Dleu2-17aa or scrPEP. Luciferase activity fold induction was quantified (n = 3). (C) Foxp3 CNS1 region enrichment by Smad3 treated with or without Dleu2-17aa for 24 h in CD4^+ T cells was assessed by ChIP-qPCR (n = 3). (D) EMSA was performed in NIH/3T3 cell nuclear lysates using a 10 μM biotin-labeled Foxp3 probe and treated with Dleu2-17aa or scrPEP (3, 10, 30 μM). There were band shifts to a higher molecular weight and an increase in band intensity by Dleu2-17aa treatment. Data information: n indicates biological replicate. Error bars are mean ± SEM; **P < 0.01, and ***P < 0.001. Statistical analysis was by two-tailed Student’s t-test for (A–C). Source data are available online for this figure.
NIH/3T3 cells were seeded at 5 × 10^5 cells/well in 24-well plates and transfected with 0.2 μg/well of pGL3 Foxp3 CNS1-luciferase reporter and the internal control vector pRL-TK (Promega) at a ratio of 10:1 (reporter construct: control vector) using LipofectamineTM 2000 according to the manufacturer’s protocol; For specific groups, co-transfect with pcDNA3.1-Smad3, an empty vector served as the control. After 7 h, remove the transfection medium and replace it with fresh medium containing either 20 μM Dleu2-17aa or PBS. 24 h post-transfection, luciferase activity was measured using the Dual-Luciferase® Reporter Assay System (Promega) according to the manufacturer’s protocol.

[2] = test system: Smad3 binding to Foxp3 CNS1 region; test: EMSA, Foxp3 CNS1 probe, NIH/3T3 nuclear lysates; conditions: 3, 10, 30 μM; NIH/3T3 nuclear extracts
Experimental: EMSA was performed using the LightShift Chemiluminescent EMSA kit (Thermo Fisher Scientific, #20148). Briefly, Nuclear extracts of NIH/3T3 cells were prepared using theNE-PER Nuclear and Cytoplasmic Extraction Kit (Thermo Fisher Scientific, #78835). Complementary DNA oligonucleotide Foxp3 CNS1 region probes were 5′-[…]-3′ and 5′-[…]-3′, AP-1 probes were 5′-[…]-3′ and 5′-[…]-3′, PAI-1 probes were 5′-[…]-3′ and 5′-[…]-3′. Probes were end-labeled with biotin and annealed. The reaction mix consists of labeled oligonucleotides, 10 µg of the nuclear extracts, and 3, 10, 30 μM Dleu2-17aa or scrPEP. The binding reaction was incubated at room temperature for 30 min, followed by loading onto a 6% native DNA polyacrylamide gel. The gel was prerun and run with […] Tris-Borate-EDTA and processed according to the manufacturer’s instructions.

Smad3 binding to the CNS1 region of Foxp3 (EMSA) [2]: did not
Sequence: ARGPARRMRGGRRRRLR [scrPEP, scrambled control peptide of Dleu2-17aa]
Relative luciferase activity ([1]; with Smad3 vector, replicate 1): 2.57
Relative luciferase activity ([1]; with Smad3 vector, replicate 2): 2.653
Relative luciferase activity ([1]; with Smad3 vector, replicate 3): 2.615
Relative luciferase activity ([1]; without Smad3 vector, replicate 1): 0.9636
Relative luciferase activity ([1]; without Smad3 vector, replicate 2): 0.91
Relative luciferase activity ([1]; without Smad3 vector, replicate 3): 1.069
